Measurements: US20250025518A1, “USE OF BIFIDOBACTERIUM LACTIS BL-99 IN PROTECTION OF CARTILAGE” (Inner Mongolia Yili Industrial Group Co., Ltd., priority 2021, published 2025)

Tested on: zebrafish cartilage
Experiment: Evaluation of cartilage protection efficacy: fluorescence intensity of cartilage in dexamethasone-induced zebrafish cartilage damage model
Assay type: in vivo
Settings: for Fluorescence intensity of cartilage (pixel, mean ± SE): n = 10

Chondroitin sulfate A sodium salt
Fluorescence intensity of cartilage (pixel, mean ± SE) (Table 2, 1000 μg/mL): 277530 ± 20981 pixel
Increased cartilage protection efficacy (%) compared with the model group (Table 3, 1000 μg/mL): 44%
Fluorescence intensity of cartilage (pixel, mean ± SE) (Table 3, 1000 μg/mL): 296517 ± 25160 pixel
